Measured values published in patent US6417178B1, “Amyloid binding nitrogen-linked compounds for the antemortem diagnosis of alzheimer's disease, in vivo imaging and prevention of amyloid deposits” (University of Pittsburgh, priority 1994, dated 2002).
Several values for one entry are separate records, joined by “and”; a condition that tells them apart may be missing. Equal entries are not always repeated. Where two headings read alike, the source gives them in different places.

Experiments:
[1] = biological target: T1, synthetic peptide, Aβ (10-43) (Homo sapiens, UniProt P05067); experiment: Inhibition of [14C]Chrysamine G binding to Aβ (10-43); details: for binding affinity in words: inhibition of [14C]Chrysamine G binding to Aβ (10-43), compared with Chrysamine G
T1 construct: The 10-43 amino acid fragment of Aβ was synthesized; made in house; host or cells: chemical (FMOC) peptide synthesis, no expression host
T1 sequence (P05067 681-714): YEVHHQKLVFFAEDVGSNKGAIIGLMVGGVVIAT
Procedure: (§1) Binding assays were performed in 12×75 mm borosilicate glass tubes. […] To the above solution, 25 μl of a 0.36 mg/ml suspension of Aβ (10-43) in H2O was added and 10% ethanol was added to bring the volume to 950 μl. […] The binding mixture was incubated for 30 min at room temperature.
Ki is defined as IC50/(1+[L]/KD ), where [L] is the concentration of [^14C]

[2] = Octanol/water partitioning; assay type: physicochemical; details: for octanol/water partition coefficient: 1-octanol / phosphate buffered saline pH 7.4
Procedure: The mixture was then centrifuged at 1,000 g to facilitate the formation of two clear phases. […] Concentrations were determined after correction for the molar absorptivity differences in the two solvents and the partition coefficient expressed as the concentration in the octanol layer divided by the concentration in the aqueous layer. Experiments were done in triplicate.

[3] = tested on: rat pheochromocytoma (PC-12) cells; details: for effect on toxicity induced by 1 μM Aβ (25-35): MTT reduction (FIG. 14)
Procedure: Rat pheochromocytoma cells (PC-12) were grown in RPMI 1640 media with 10% fetal bovine serum. Approximately 5,000 exponentially growing cells were plated in 96-well plates in a volume of 100 μl of media and allowed to incubate at 37° C. overnight. […] The cells were incubated for 24 hrs prior to the addition of 13.3 μl of 5 mg/ml MTT (3,(4,5-dimethylthiazol-2-yl)2,5-diphenyltetrazolium bromide) in sterile phosphate buffered saline. After 4.5 hrs at 37° C., 100 μl of extraction buffer (20% w/v SDS in 50% DMF/water; pH adjusted to 4.7 with 2.5% of 80% acetic acid and 2.5% 1N HCl) was added and the plates were incubated overnight. Hansen et al., J. Immunol. Methods 119: 203 (1989). Color development was then measured at 560 nm. Maximum viability was defined as the absorbance of control wells to which only the 20 μl of distilled, deionized H2O was added. Maximum toxicity was defined by wells in which the cells were lysed by addition of 0.1% (final concentration) of Triton X-100.

AD brain homogenates [4] = experiment: [14C]CG binding to AD brain homogenates; details: for total binding, AD: high and low-plaque AD brains combined
Procedure: (§2) Autopsy brain samples were obtained from the Neuropathology Core of the Alzheimer's Disease Research Center of the University of Pittsburgh. […] Brain samples from eight control (ages 58-75), eleven AD (ages 61-84), and two Down syndrome brains were studied. There were six high-plaque (>20 NPs/×200 magnification) and five low-plaque (<20 NPs/×200 magnification) AD brains. […] Autopsy samples were immediately frozen at −70° C. and stored at that temperature until homogenized. […] The Bielschowsky silver impregnation method was used to identify NPs and NFTs and Congo red staining was used to identify cerebral amyloid angiopathy.
(§3) Aliquots of 25-150 μl tissue (about 25-300 μg of protein by the method of Lowry et al., J. Biol, Chem. 193: 265 (1951)) were incubated in 12×75 mm borosilicate glass tubes at room temperature with 10-750 nM [^14C]CG (26.8 Ci/mole) in a final volume of 1.0 ml of 10% ethanol for 30 min at room temperature. The standard conditions employed about 150 μg of protein and 75 nM [^14C]CG for the cerebellar ratio studies and about 75 μg of protein and 150 nM [^14C]CG for the correlative studies with NPs, NFTS, and amyloid angiopathy. Ethanol was necessary to prevent the micelle formation which occurs with diazo dye derivatives, since the micelles are trapped by the filter even in the absence of tissue. Bound and free radioactivity were separated by vacuum filtration through Whatman GF/B filters using a Brandel M-24R Cell Harvester (Gaithersburg, Md.) followed by two 3-ml washes with 10% ethanol at room temperature. Filters were equilibrated overnight in 4 ml Cytoscint®-ES scintillant (ICN Biomedicals, Inc., Irvine, Calif.) in 7.0 ml plastic scintillation vials before counting. Saturable (specific) binding was defined as total binding minus residual (non-saturable) binding in the presence of 20 μM unlabelled CG. In all binding assays, incubations were done at least in triplicate and the results expressed as mean±standard error unless otherwise specified. Results were expressed either in absolute terms of fmol [^14C]CG bound/μg protein in a given brain area, or as a ratio of the fmol/μg protein in that brain area to the fmol/μg protein in the cerebellum of the same brain.

AD brain homogenates [5] = biological target: AD brain homogenates (Homo sapiens, UniProt P05067); experiment: [14C]CG binding to AD brain homogenates
Chain of AD brain homogenates (Homo sapiens, UniProt P05067) (P05067 18-770): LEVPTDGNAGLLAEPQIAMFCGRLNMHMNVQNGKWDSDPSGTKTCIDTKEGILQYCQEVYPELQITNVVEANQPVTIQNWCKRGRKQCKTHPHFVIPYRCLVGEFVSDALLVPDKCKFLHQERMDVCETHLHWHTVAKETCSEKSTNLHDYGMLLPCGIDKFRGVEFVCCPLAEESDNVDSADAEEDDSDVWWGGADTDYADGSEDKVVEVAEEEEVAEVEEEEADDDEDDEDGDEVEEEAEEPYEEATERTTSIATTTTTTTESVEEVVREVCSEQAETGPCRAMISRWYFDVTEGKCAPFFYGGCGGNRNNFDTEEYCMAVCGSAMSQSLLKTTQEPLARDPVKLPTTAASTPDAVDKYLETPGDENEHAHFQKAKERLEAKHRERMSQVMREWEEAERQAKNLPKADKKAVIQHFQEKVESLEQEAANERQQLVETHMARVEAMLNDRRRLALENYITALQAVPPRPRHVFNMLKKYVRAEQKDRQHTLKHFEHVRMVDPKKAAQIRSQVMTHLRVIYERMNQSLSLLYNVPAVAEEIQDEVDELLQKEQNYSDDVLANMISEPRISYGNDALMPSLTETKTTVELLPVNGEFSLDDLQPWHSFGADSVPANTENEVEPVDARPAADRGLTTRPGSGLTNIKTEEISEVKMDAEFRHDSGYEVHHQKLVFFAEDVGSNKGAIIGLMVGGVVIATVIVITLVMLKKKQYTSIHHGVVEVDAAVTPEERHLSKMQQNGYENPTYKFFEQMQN
Procedure: as §2, §3

[6] = tested on: Down's syndrome brain samples; experiment: [14C]Chrysamine G binding to Down's syndrome brain samples; set-up: species or system human; details: two patients; ratio to cerebellum (FIG. 9C)
Source text: Down's syndrome patients all develop deposits of Aβ by their fourth decade and many develop AD. Wisniewski et al., Neurology 35: 957 (1985); Schapiro et al., Neurobiol. Aging 13, 723 (1992).

[7] = tested on: control brain homogenates; experiment: [14C]CG binding to control brain homogenates; set-up: species or system human
[8] = Tissue levels after i.v. injection of [14C]Chrysamine G in mice (blood-brain barrier, metabolism); assay type: in vivo, Swiss-Webster mice; details: brain and liver extracted 60 min after i.v. injection
Procedure: Mice were sacrificed by cervical dislocation at intervals of 15 min, 35 min, 1 hr, 4 hr, and 24 hr after injection. The carotid blood, brain, liver, and kidneys were rapidly obtained, weighed, and homogenized in distilled/deionized H2O using a ground glass homogenizer. An aliquot was weighed into an 18.0 ml plastic scintillation vial (Beckman Poly-Q-Vial) and counted after addition of 10.0 ml of scintillation cocktail (Cytoscint®-ES (ICN)) and overnight equilibration.
Brain and liver were then removed and extracted with a Folch procedure. Folch et al., J. Biol. Chem. 226: 447 (1957). In both tissues, over 95% of the extracted radioactivity was contained in the organic layer. The organic layer was evaporated to dryness, resuspended in a minimal amount of 10% methanol/90% ACN, and injected onto a silica column (Prep Nova Pak HR Silica, 7.8×300 mm, Waters, Milford, Mass.) and eluted isocratically with the same solvent. Under these conditions, 99% of the radioactivity is eluted in the solvent front, but most lipids are retained longer, making the fraction eluting in the solvent front suitable for injection onto the reverse-phase C4 column system described above. […] One minute fractions were collected and counted after addition of 10 ml of Cytoscint®-ES.

[9] = biological target: synthetic Aβ (10-43) peptide (Homo sapiens, UniProt P05067); experiment: Scatchard analysis of Chrysamine G binding to synthetic Aβ (10-43)
Chain of synthetic Aβ (10-43) peptide (P05067 681-714): as the sequence (P05067 681-714) above
Source text: Hilbich et al., J. Mol. Biol. 218: 149 (1991). The 10-43 amino acid fragment of Aβ was synthesized with 9-fluorenylmethyl chloroformate (FMOC) chemistry by the Peptide Synthesis Facility of the University of Pittsburgh. […] The peptide was further purified by the method of Hilbich et al. which, in brief, consisted of sequential size-exclusion chromatography on a Biogel P10 column (2×180 cm, 200-400 mesh, Biorad, Richmond, Calif.) in 70% formic acid followed by a second elution through a Biogel P4 column (2×180 cm, 200-400 mesh) in 1M acetic acid. Hilbich et al., J. Mol. Biol. 218: 149 (1991). The peptide was lyophilized and stored at −80° C. until used in the binding assays.
as §1

Aβ (10-43) = Aβ (10-43) (Homo sapiens, UniProt P05067); experiment: Kinetics of [14C]Chrysamine G binding to Aβ (10-43)
Chain of Aβ (10-43) (P05067 681-714): as above
Procedure: This mixture was vortexed and incubated for 30 min at room temperature.
Bennett, J. P. and Yamamura, H. I. in NEUROTRANSMITTER RECEPTOR BINDING (N.Y.: Raven Press 1985) pp. 61-89. […] The curve in FIG. 6C follows the equation: […]

in vivo = details: mouse
[10] = guinea pigs; cited from earlier work
[11] = tested on: rat pheochromocytoma (PC-12) cells; details: previously reported; cited from earlier work
[12] = Ki for inhibition of [14C]Chrysamine G binding to Aβ (10-43), Ki=IC50/(1+[L]/KD), KD 0.26 μM
[13] = PC-12 cells, Aβ (25-35), MTT reduction

SMILES: O=C(O)c1cc(N=Nc2ccc(-c3ccc(N=Nc4ccc(O)c(C(=O)O)c4)cc3S(=O)(=O)O)c(S(=O)(=O)O)c2)ccc1O [2,2′-(SO3)2CG]
- binding affinity in words [1]: inactivity

SMILES: O=C(O)c1cc(N=Nc2ccc(-c3ccc(N=Nc4ccc(O)c(C(=O)O)c4)c(C(=O)O)c3)cc2C(=O)O)ccc1O [3,3′-(COOH)2CG]
- decrease in affinity / loss of activity relative to Chrysamine G [1]: 7 fold

SMILES: O=C(O)c1cc(N=Nc2ccc(-c3ccc(N=Nc4ccc(O)c(C(=O)O)c4)c(Br)c3)cc2Br)ccc1O [3,3′-Br2CG]
- binding affinity in words [1]: about half that of Chrysamine G

SMILES: O=C(O)c1cc(N=Nc2ccc(-c3ccc(N=Nc4ccc(O)c(C(=O)O)c4)c(Cl)c3)cc2Cl)ccc1O [3,3′-Cl2CG]
- binding affinity in words [1]: about half that of Chrysamine G

SMILES: O=C(O)c1cc(N=Nc2ccc(-c3ccc(N=Nc4ccc(O)c(C(=O)O)c4)c(I)c3)cc2I)ccc1O [3,3′-I2CG]
- binding affinity in words [1]: about half that of Chrysamine G
- octanol/water partition coefficient [2]: 112.9±7.3

SMILES: O=C(O)c1cc(F)cc(N=Nc2ccc(-c3ccc(N=Nc4cc(F)cc(C(=O)O)c4O)cc3)cc2)c1O [(5-FSA)CG, 4,4′-bis(2-hydroxy-3-carboxy-5-fluorophenylazo)-biphenyl]
- Ki [1, 12]: 1160 ± 190 nM
- binding affinity in words [1]: one-third as potent as Chrysamine G

SMILES: COC(=O)c1cc(N=Nc2ccc(-c3ccc(N=Nc4ccc(O)c(C(=O)OC)c4)cc3)cc2)ccc1O [CG(COOMe)2, 4,4′-bis(3-methoxycarbonyl-4-hydroxyphenylazo)-biphenyl]
- decrease in affinity / loss of activity relative to Chrysamine G [1]: about 200 fold

SMILES: O=C(O)c1cc(N=Nc2ccc(-c3ccc(N=Nc4ccc(O)c(C(=O)O)c4)cc3)cc2)ccc1O [Chrysamine G, 4,4′-bis(3-carboxy-4-hydroxyphenylazo)-biphenyl]
- MTT reduction with compound alone versus control [3]: no significant difference
- concentration at which the protective effect is evident [3, 13]: 0.2 µM
- concentration range showing effects [3, 13]: 0.1 to 1.0 µM
- effect on toxicity induced by 1 μM Aβ (25-35) ([3]; PC-12 cells): protective effects at 0.1 and 1 μM
- saturable (specific) binding as share of total binding (AD brain homogenates [4]; AD brain homogenates): 60-80%
- total binding, AD (AD brain homogenates [4]; Cerebellum): 73 ± 9 (n = 11) fmol/μg protein
- total binding, AD (AD brain homogenates [4]; Frontal Pole): 124 ± 16 (n = 10) fmol/μg protein
- total binding, AD (AD brain homogenates [4]; Head of Caudate): 123 ± 22 (n = 7) fmol/μg protein
- total binding, AD (AD brain homogenates [4]; Inferior Parietal): 137 ± 19 (n = 11) fmol/μg protein
- total binding, AD (AD brain homogenates [4]; Occipital): 95 ± 12 (n = 11) fmol/μg protein
- total binding, AD (AD brain homogenates [4]; Superior Temporal): 121 ± 14 (n = 11) fmol/μg protein
- total binding, AD (AD brain homogenates [4]; Superior/Middle Frontal): 130 ± 21 (n = 11) fmol/μg protein
- Bmax in AD brain higher than control (AD brain homogenates [4]; not significant (p=0.09)): 36%
- KD in AD brain lower than control (AD brain homogenates [4]; not significant (p=0.29)): 16%
- Bmax (pmol/μg prot) (AD brain homogenates [5]; AD (n = 5)): 0.784 ± .061 pmol/μg prot
- Bmax, typical AD brain sample (FIG. 4B) (AD brain homogenates [5]; AD brain sample with 48 NP/×200 magnification): 790 fmol/μg protein
- binding in Down's syndrome brain compared with control [6]: above the control range
- Ki [1, 12]: 370 ± 40 nM
- energy of binding ([1]; ΔG=−RT ln Keq, Keq=1/KD≈1/Ki): roughly 38 KJ/mole
- Bmax, typical control brain sample (FIG. 4B) [7]: 614 fmol/μg protein
- total binding, Control ([7]; Cerebellum): 75 ± 13 (n = 8) fmol/μg protein
- Bmax (pmol/μg prot) ([7]; Control (n = 6)): 0.576 ± .092 pmol/μg prot
- Kd ([7]; Control (n = 6), read-out: KD): 470 ± 49 nM
- total binding, Control ([7]; Frontal Pole): 58 ± 8 (n = 6) fmol/μg protein
- total binding, Control ([7]; Head of Caudate): 73 ± 11 (n = 4) fmol/μg protein
- total binding, Control ([7]; Inferior Parietal): 76 ± 13 (n = 8) fmol/μg protein
- total binding, Control ([7]; Occipital): 64 ± 16 (n = 8) fmol/μg protein
- total binding, Control ([7]; Superior Temporal): 66 ± 17 (n = 8) fmol/μg protein
- total binding, Control ([7]; Superior/Middle Frontal): 54 ± 10 (n = 8) fmol/μg protein
- Kd ([7]; read-out: KD, typical control brain sample (FIG. 4B)): 480 nM
- recovered radioactivity co-eluting with authentic Chrysamine G on reverse phase HPLC [8]: > 95%
- Kd ([9]; Scatchard, two independent binding site model, read-out: KD, higher affinity component): 257 nM and 260 nM
- Bmax, higher affinity component ([9]; Scatchard, two-site model): 3.18 nmoles Chrysamine G/mg Aβ (10-43)
- Bmax, lower affinity component ([9]; Scatchard, two-site model, less well defined): 18.7 nmoles Chrysamine G/mg Aβ (10-43)
- Kd ([9]; whether measured by Scatchard analysis, kinetic methods, or inhibition of binding, read-out: dissociation constant): 250 to 400 nM
- times more lipophilic than Congo red ([2]; from partition coefficients): approximately 90
- time by which association is essentially complete (Aβ (10-43); [Chrysamine G]=112 μM): ≤ 1 min
- Kd (Aβ (10-43); from kinetic constants, read-out: KD=k−1/k1): 340 nM
- LD50 at 72 h (in vivo): > 100 mg/kg

SMILES: Nc1c(/N=N/c2ccc(-c3ccc(/N=N/c4cc(S(=O)(=O)O)c5ccccc5c4N)cc3)cc2)cc(S(=O)(=O)O)c2ccccc12 [Congo red, reference compound]
- Ki [1, 12]: 2820 nM and 2800 nM
- brain/kidney ratio [10]: approximately 0.07
- octanol/water partition coefficient [2]: 0.665±0.037
- concentration achieving complete protection [11]: 20 µM
- concentrations protecting against Aβ-induced toxicity [11]: over 2 μM

SMILES: O=C(O)c1cc(N=Nc2ccccc2)ccc1O [aniline derivative]
- energy of binding [1]: 5.5 kcal/mol
- Ki ([1]; read-out: Ki for inhibition of [14C]Chrysamine G binding to Aβ (10-43)): 73000 nM

SMILES: Oc1ccc(N=Nc2ccc(-c3ccc(N=Nc4ccc(O)cc4)cc3)cc2)cc1 [phenol derivative]
- effect on toxicity induced by 1 μM Aβ (25-35) ([3]; PC-12 cells): no protective effects
- binding affinity in words [1]: completely destroyed binding affinity

SMILES: O=C(O)c1ccccc1O [salicylic acid, reference compound]
- binding affinity in words [1]: total lack of binding activity

SMILES: Cc1cc(-c2cc(C)c(N=Nc3ccc(O)c(C(=O)O)c3)c(C)c2)cc(C)c1N=Nc1ccc(O)c(C(=O)O)c1 [tetramethyl analog of Chrysamine G, 4,4′-bis(3-carboxy-4-hydroxyphenylazo)-3,3′,5,5′-tetramethylbiphenyl]
- Ki [1, 12]: 750 ± 90 nM
- binding affinity in words [1]: about twice that of Chrysamine G
